Consider eleven compounds from ChEMBL document CHEMBL4819127, “Syntheses and antimicrobial activities of ogipeptin derivatives” (Bioorg Med Chem Lett, 2021).

Values after ≈ are worked out from the molar mass of the structure shown. Active and inactive are the calls of the source. The calls are words filed in the database; no cut-off is given here.

Series [1] deals with Pseudomonas aeruginosa. Put plainly: Antibacterial activity against multidrug resistance Pseudomonas aeruginosa. Format: functional, organism-based.
Series [2] concerns Escherichia coli. Nature of the series: Antibacterial activity against Escherichia coli. The class given is functional, organism-based.
Series [3] concerns Acinetobacter. Put plainly: Antibacterial activity against Acinetobacter sp. Format: functional, organism-based.
Series [4] has as its system Klebsiella pneumoniae. Put plainly: Antibacterial activity against Klebsiella pneumoniae. The class given is functional, organism-based.
Series [5] relates to Escherichia coli. Put plainly: Antibacterial activity against Escherichia coli ATCC 47076 assessed as bacterial growth inhibition. The class given is functional.
Series [6] relates to Klebsiella pneumoniae. Put plainly: Antibacterial activity against Klebsiella pneumoniae ATCC 10031 assessed as bacterial growth inhibition. The class given is functional.
In series [7] the test system is Acinetobacter baumannii. Put plainly: Antibacterial activity against Acinetobacter baumannii ATCC 19606 assessed as bacterial growth inhibition. The class given is functional. The settings on record: ATCC 19606 = CIP 70.34 = JCM 6841.
Series [8] relates to Pseudomonas aeruginosa. Nature of the series: Antibacterial activity against Pseudomonas aeruginosa ATCC 27853 assessed as bacterial growth inhibition. Format: functional.
Series [9] relates to Klebsiella pneumoniae. Put plainly: Antibacterial activity against Klebsiella pneumoniae ATCC 700721 assessed as bacterial growth inhibition. The class given is functional.
For series [10], the system named is Klebsiella pneumoniae. Put plainly: Antibacterial activity against Klebsiella pneumoniae JCM 1662 assessed as bacterial growth inhibition. Format: functional.
In series [11] the test system is Pseudomonas aeruginosa. Put plainly: Antibacterial activity against Pseudomonas aeruginosa ATCC 15692 assessed as bacterial growth inhibition. Format: functional.
Series [12] deals with Klebsiella pneumoniae. Nature of the series: Antibacterial activity against Klebsiella pneumoniae IHMA 1387833 assessed as bacterial growth inhibition. Format: functional.
Series [13] has as its system Acinetobacter baumannii. Nature of the series: Antibacterial activity against Acinetobacter baumannii IHMA 1312713 assessed as bacterial growth inhibition. The class given is functional.
Series [14] concerns Pseudomonas aeruginosa. Nature of the series: Antibacterial activity against Pseudomonas aeruginosa IHMA 1375891 assessed as bacterial growth inhibition. The class given is functional.
The nature of series [15]: (§1) Cytotoxicity against HEK293 cells. The class given is cell-based. Conditions: human, HEK293 cells.
Series [16] concerns HepG2. Nature of the series: Cytotoxicity against human HepG2 cells. Format: functional.
The nature of series [17]: Lipophilicity, logD of compound. Format: physicochemical. Conditions: octanol/water.
Series [18] has as its system HEK293. Described as §1. Format: cell-based. Conditions: human, hek293.

For `C/C=C1\NC(=O)C(NC(=O)CCC/C=C\CCCCCC)C(O)CNC(=O)C(C(O)CN)NC(=O)C(C(O)CN)NC(=O)[C@H](CCCNC(=N)N)NC[C@H](CC(C)C)NC(=O)[C@H](CCN)NC1=O` (stereo partly drawn), the outcome in series [1] and in series [2] was Active. The outcome in series [3] and in series [4] was inactive.
Broadly, the MIC is the lowest concentration that inhibits growth of the organism. For orientation: CC50 means the concentration giving 50% cytotoxicity. Read a high CC50 as lower toxicity to the cells. What is called logD is lipophilicity at a set pH, counting ionised and neutral species. A higher logD goes with a more lipophilic compound. On to `C/C=C1\NC(=O)C(NC(=O)COc2ccc(/C=C/C(=O)OC(C)(C)C)cc2)C(O)CNC(=O)C(C(O)CN)NC(=O)C(C(O)CN)NC(=O)[C@H](CCCNC(=N)N)NC(=O)[C@H](CC(C)C)NC(=O)[C@H](CCN)NC1=O` (stereo partly drawn), for which the MIC is 2 µg/mL (≈ 1.88 µM) in series [5]; 2 µg/mL (≈ 1.88 µM) in series [6]; 2 µg/mL (≈ 1.88 µM) in [7]; 4 µg/mL (≈ 3.77 µM) in series [8]; 2 µg/mL (≈ 1.88 µM) in series [9]; more than 256 µg/mL in series [10]. The MIC in series [11] is 8 µg/mL (≈ 7.54 µM); in [12], more than 256 µg/mL; in [13] it was 128 µg/mL (≈ 121 µM); in [14], 128 µg/mL (≈ 121 µM). For the same compound, the CC50 in [15] and in series [16] was more than 64 µM in each case. In [17], this compound came in with a logD of 2.65.
`C/C=C1\NC(=O)C(NC(=O)CCCCCCCCCCC)C(O)CNC(=O)C(C(O)CN)NC(=O)C(C(O)CN)NC(=O)[C@H](CCCNC(=N)N)NC[C@H](CC(C)C)NC(=O)[C@H](CCN)NC1=O` (stereo partly drawn): the result in series [1] and in [2] was Active. Moreover, the outcome in series [3] and in series [4] was inactive.
As to `C/C=C1\NC(=O)C(NC(=O)c2ccc(Oc3ccccc3CCCC)cc2)C(O)CNC(=O)C(C(O)CN)NC(=O)C(C(O)CN)NC(=O)[C@H](CCCNC(=N)N)NC(=O)[C@H](CC(C)C)NC(=O)[C@H](CCN)NC1=O` (stereo partly drawn), the minimum inhibitory concentration (MIC) in series [5] was determined as 2 µg/mL (≈ 1.9 µM); in [6], 4 µg/mL (≈ 3.8 µM); in series [7] it was 2 µg/mL (≈ 1.9 µM); in series [8], 4 µg/mL (≈ 3.8 µM); in series [9], 4 µg/mL (≈ 3.8 µM); in series [10], 4 µg/mL (≈ 3.8 µM). Moreover, the minimum inhibitory concentration (MIC) was 64 µg/mL (≈ 60.8 µM) in series [11], more than 256 µg/mL in series [12], 8 µg/mL (≈ 7.6 µM) in series [13] and 64 µg/mL (≈ 60.8 µM) in series [14]. Also, the CC50 in [15] and in series [16] was more than 64 µM throughout. Further, in series [17], the logD is listed as 4.984.
Take `C/C=C1\NC(=O)C(NC(=O)CCCCC/C=C\CCCCCC)C(O)CNC(=O)C(C(O)CN)NC(=O)C(C(O)CN)NC(=O)[C@H](CCCNC(=N)N)NC[C@H](CC(C)C)NC(=O)[C@H](CCN)NC1=O` (stereo partly drawn): the result in [1] and in [2] was Active. Also, the outcome in series [3] and in [4] was inactive.
Take COLISTIN: in [18], the CC50 was more than 64 µM.
For the compound `C/C=C1\NC(=O)C(NC(=O)CCCCCCCCC)C(O)CNC(=O)C(C(O)CN)NC(=O)C(C(O)CN)NC(=O)[C@H](CCCNC(=N)N)NC(=O)[C@H](CC(C)C)NC(=O)[C@H](CCN)NC1=O` (stereo partly drawn), the minimum inhibitory concentration (MIC) was 2 µg/mL (≈ 2.09 µM) in series [5]; 1 µg/mL (≈ 1.05 µM) in series [6]; 2 µg/mL (≈ 2.09 µM) in series [7]; 4 µg/mL (≈ 4.19 µM) in [8]; more than 256 µg/mL in [9]; more than 256 µg/mL in series [10]. Also, the minimal inhibitory concentration (MIC) in series [11] is 64 µg/mL (≈ 67 µM); in series [12], more than 256 µg/mL; in series [13], more than 256 µg/mL; in series [14], 128 µg/mL (≈ 134 µM). In addition, the CC50 in [15] and in series [16] was more than 64 µM each time. The compound also gave a logD in [17] of 3.756.
In the case of `C/C=C1\NC(=O)C(NC(=O)c2cc3cc(Cl)ccc3o2)C(O)CNC(=O)C(C(O)CN)NC(=O)C(C(O)CN)NC(=O)[C@H](CCCNC(=N)N)NC(=O)[C@H](CC(C)C)NC(=O)[C@H](CCN)NC1=O` (stereo partly drawn), the minimal inhibitory concentration (MIC) in [5] is 2 µg/mL (≈ 2.04 µM); in series [6], 2 µg/mL (≈ 2.04 µM); in [7] it was 2 µg/mL (≈ 2.04 µM); in [8], 4 µg/mL (≈ 4.08 µM); in series [9], 8 µg/mL (≈ 8.17 µM); in series [10] it was more than 256 µg/mL. Further, the MIC is more than 256 µg/mL in series [11], more than 256 µg/mL in series [12], 256 µg/mL (≈ 261 µM) in series [13] and more than 256 µg/mL in series [14]. Also, the 50% cytotoxic concentration (CC50) in series [15] and in [16] was more than 64 µM each time. This compound yielded a logD in series [17] of 2.829.
As for `C/C=C1\NC(=O)C(NC(=O)c2cn(-c3ccccc3)nc2-c2ccc(Cl)cc2)C(O)CNC(=O)C(C(O)CN)NC(=O)C(C(O)CN)NC(=O)[C@H](CCCNC(=N)N)NC(=O)[C@H](CC(C)C)NC(=O)[C@H](CCN)NC1=O` (stereo partly drawn), the MIC in [5] is 4 µg/mL (≈ 3.7 µM); in [6], 4 µg/mL (≈ 3.7 µM); in series [7] it was 8 µg/mL (≈ 7.4 µM); in series [8], 8 µg/mL (≈ 7.4 µM); in [9], more than 256 µg/mL; in series [10], more than 256 µg/mL. Further, the MIC was 128 µg/mL (≈ 118 µM) in series [11], more than 256 µg/mL in series [12], 64 µg/mL (≈ 59.2 µM) in [13] and 128 µg/mL (≈ 118 µM) in series [14]. Further, the half-maximal cytotoxic concentration (CC50) in series [15] and in [16] was more than 64 µM throughout.
With `C/C=C1\NC(=O)C(NC(=O)CCCCCCCCC)C(O)CNC(=O)C(C(O)CN)NC(=O)C(C(O)CN)NC(=O)[C@H](CCCNC(=N)N)NC[C@H](CC(C)C)NC(=O)[C@H](CCN)NC1=O` (stereo partly drawn), the result in [1] and in [2] was Active. The outcome in series [3] and in series [4] was inactive.
`C/C=C1\NC(=O)C(NC(=O)CCc2nnc(-c3ccc(OC)cc3)[nH]2)C(O)CNC(=O)C(C(O)CN)NC(=O)C(C(O)CN)NC(=O)[C@H](CCCNC(=N)N)NC(=O)[C@H](CC(C)C)NC(=O)[C@H](CCN)NC1=O` (stereo partly drawn): the MIC in [5] is 2 µg/mL (≈ 1.94 µM); in series [6], 8 µg/mL (≈ 7.77 µM); in series [7], more than 256 µg/mL; in series [8], 8 µg/mL (≈ 7.77 µM); in series [9], 16 µg/mL (≈ 15.5 µM); in [10] it was more than 256 µg/mL. Moreover, the minimal inhibitory concentration (MIC) in [11], in [12], in series [13] and in [14] was more than 256 µg/mL each time. Further, the CC50 in series [15] and in series [16] was more than 64 µM throughout.
